pIC50: −log10 of the molar value. Values joined by “and” are separate entries in the source; they are usually repeats but may differ in a detail not shown here. Identical values can stand only once. Like-named read-outs stand apart in the source and are kept apart here.
Experiments:
Nav1.5 [1] = target: T1, Nav1.5 (Homo sapiens, UniProt Q14524)
Nav1.4 [2] = target: T2, Nav1.4 (Homo sapiens, UniProt P35499); type: cell-based; on Mean block of INa: test concentration or dose not given here
Nav = conditions: cited from earlier work
gramicidin-HEK cells = type: cell-based, human
Nav1.5 [3] = target: T1, Nav1.5; type: cell-based
Nav1.5 (SCN5A) = Nav1.5 (SCN5A) (Homo sapiens, UniProt Q14524); type: cell-based
[4] = target: Nav1.1 pore-mutant (F1763A-LA mutant) (Homo sapiens, UniProt P35498, F1774A); conditions: cited from earlier work
Nav1.4 [5] = target: T2, Nav1.4; type: cell-based; remark: listed apart in the source
[6] = tested on: Nav1.5 transfected cells (CHO)
Nav1.4 F1586A = Nav1.4 F1586A (Homo sapiens, UniProt P35499, F1586A); type: cell-based; on Mean block of INa: test concentration or dose not given here
[7] = target: Nav1.4 DIV-S6 peptide ([…]) (Homo sapiens, UniProt P35499); type: binding
[8] = tested on: gramicidin containing DC22:1PC LUVs
Nav1.4 P1158S = Nav1.4 P1158S (Homo sapiens, UniProt P35499, P1158S); type: cell-based
Nav1.5 [9] = target: T1, Nav1.5; type: cell-based; remark: listed apart in the source
[10] = tested on: Nav1.5 transfected cells (CHO); type: cell-based, Chinese hamster
Nav1.4 WWWW = Nav1.4 WWWW (Homo sapiens, UniProt P35499, F432W/I1280W/I1583W/V787W); type: cell-based; further: test concentration or dose not given here
Nav1.5 [11] = target: T1, Nav1.5; type: cell-based; remark: listed apart in the source
Nav1.5 [12] = target: T1, Nav1.5; type: cell-based; remark: listed apart in the source
Nav1.4 [13] = target: T2, Nav1.4; conditions: read-out: resting IC50 on Nav1.4; cited from earlier work
Nav1.5 [14] = target: T1, Nav1.5; type: cell-based; remark: listed apart in the source
TTX-sensitive channels = conditions: cited from earlier work
Wherever contraction amplitude is given: test concentration or dose not given here.

Sequence of Nav1.4 P1158S (P35499 whole entry P1158S, looked up): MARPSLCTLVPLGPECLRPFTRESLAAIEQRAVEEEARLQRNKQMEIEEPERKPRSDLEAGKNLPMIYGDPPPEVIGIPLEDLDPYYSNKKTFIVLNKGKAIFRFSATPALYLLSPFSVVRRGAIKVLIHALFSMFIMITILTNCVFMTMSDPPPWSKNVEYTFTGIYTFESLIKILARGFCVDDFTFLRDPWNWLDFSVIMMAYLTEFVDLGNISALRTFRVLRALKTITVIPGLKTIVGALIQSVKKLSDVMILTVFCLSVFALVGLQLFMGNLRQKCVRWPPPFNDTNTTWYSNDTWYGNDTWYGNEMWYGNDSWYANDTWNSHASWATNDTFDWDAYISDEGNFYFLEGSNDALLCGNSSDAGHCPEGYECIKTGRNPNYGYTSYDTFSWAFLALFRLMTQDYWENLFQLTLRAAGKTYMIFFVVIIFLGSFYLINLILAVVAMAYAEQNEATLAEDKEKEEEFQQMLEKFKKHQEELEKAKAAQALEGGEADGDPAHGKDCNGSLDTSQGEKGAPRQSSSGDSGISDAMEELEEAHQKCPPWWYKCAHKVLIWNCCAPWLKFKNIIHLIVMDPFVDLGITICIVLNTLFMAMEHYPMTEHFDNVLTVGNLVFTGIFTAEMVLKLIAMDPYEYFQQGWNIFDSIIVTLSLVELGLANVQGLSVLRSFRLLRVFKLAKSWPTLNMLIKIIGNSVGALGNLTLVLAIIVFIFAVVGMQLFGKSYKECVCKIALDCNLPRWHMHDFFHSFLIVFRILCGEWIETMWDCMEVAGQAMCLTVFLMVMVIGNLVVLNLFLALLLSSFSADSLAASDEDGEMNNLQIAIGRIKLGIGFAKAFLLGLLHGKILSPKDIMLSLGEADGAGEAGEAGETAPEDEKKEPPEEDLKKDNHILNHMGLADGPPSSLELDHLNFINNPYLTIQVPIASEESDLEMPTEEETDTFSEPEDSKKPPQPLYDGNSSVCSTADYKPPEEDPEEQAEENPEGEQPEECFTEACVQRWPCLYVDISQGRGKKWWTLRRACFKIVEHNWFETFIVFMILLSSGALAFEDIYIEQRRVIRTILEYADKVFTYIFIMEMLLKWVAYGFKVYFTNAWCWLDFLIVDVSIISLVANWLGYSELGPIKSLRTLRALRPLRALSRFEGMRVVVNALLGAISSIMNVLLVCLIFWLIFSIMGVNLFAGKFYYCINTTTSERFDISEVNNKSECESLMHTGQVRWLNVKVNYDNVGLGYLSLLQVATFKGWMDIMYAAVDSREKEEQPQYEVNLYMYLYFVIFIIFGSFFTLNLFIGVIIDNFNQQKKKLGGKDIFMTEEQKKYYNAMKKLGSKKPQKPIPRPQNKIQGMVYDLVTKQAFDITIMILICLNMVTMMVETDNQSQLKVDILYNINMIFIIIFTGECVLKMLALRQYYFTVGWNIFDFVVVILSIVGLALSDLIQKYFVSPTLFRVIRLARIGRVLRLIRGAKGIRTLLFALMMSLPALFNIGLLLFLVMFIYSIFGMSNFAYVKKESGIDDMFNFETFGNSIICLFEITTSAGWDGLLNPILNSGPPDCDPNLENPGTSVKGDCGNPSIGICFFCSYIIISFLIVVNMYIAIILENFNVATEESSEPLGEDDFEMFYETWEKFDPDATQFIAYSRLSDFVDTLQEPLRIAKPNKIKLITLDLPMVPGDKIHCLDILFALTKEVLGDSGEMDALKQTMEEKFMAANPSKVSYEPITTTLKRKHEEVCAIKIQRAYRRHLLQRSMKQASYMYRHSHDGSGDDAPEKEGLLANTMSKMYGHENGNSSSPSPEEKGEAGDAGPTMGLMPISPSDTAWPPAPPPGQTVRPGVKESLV
T2 sequence (P35499 whole entry, looked up): as the sequence (P35499 whole entry P1158S, looked up) above, with S1158P counted along it
Sequence of Nav1.4 WWWW (P35499 whole entry F432W/V787W/I1280W/I1583W, looked up): as the sequence (P35499 whole entry P1158S, looked up) above, with F432W, V787W, S1158P, I1280W, I1583W counted along it
T1 sequence (Q14524 whole entry): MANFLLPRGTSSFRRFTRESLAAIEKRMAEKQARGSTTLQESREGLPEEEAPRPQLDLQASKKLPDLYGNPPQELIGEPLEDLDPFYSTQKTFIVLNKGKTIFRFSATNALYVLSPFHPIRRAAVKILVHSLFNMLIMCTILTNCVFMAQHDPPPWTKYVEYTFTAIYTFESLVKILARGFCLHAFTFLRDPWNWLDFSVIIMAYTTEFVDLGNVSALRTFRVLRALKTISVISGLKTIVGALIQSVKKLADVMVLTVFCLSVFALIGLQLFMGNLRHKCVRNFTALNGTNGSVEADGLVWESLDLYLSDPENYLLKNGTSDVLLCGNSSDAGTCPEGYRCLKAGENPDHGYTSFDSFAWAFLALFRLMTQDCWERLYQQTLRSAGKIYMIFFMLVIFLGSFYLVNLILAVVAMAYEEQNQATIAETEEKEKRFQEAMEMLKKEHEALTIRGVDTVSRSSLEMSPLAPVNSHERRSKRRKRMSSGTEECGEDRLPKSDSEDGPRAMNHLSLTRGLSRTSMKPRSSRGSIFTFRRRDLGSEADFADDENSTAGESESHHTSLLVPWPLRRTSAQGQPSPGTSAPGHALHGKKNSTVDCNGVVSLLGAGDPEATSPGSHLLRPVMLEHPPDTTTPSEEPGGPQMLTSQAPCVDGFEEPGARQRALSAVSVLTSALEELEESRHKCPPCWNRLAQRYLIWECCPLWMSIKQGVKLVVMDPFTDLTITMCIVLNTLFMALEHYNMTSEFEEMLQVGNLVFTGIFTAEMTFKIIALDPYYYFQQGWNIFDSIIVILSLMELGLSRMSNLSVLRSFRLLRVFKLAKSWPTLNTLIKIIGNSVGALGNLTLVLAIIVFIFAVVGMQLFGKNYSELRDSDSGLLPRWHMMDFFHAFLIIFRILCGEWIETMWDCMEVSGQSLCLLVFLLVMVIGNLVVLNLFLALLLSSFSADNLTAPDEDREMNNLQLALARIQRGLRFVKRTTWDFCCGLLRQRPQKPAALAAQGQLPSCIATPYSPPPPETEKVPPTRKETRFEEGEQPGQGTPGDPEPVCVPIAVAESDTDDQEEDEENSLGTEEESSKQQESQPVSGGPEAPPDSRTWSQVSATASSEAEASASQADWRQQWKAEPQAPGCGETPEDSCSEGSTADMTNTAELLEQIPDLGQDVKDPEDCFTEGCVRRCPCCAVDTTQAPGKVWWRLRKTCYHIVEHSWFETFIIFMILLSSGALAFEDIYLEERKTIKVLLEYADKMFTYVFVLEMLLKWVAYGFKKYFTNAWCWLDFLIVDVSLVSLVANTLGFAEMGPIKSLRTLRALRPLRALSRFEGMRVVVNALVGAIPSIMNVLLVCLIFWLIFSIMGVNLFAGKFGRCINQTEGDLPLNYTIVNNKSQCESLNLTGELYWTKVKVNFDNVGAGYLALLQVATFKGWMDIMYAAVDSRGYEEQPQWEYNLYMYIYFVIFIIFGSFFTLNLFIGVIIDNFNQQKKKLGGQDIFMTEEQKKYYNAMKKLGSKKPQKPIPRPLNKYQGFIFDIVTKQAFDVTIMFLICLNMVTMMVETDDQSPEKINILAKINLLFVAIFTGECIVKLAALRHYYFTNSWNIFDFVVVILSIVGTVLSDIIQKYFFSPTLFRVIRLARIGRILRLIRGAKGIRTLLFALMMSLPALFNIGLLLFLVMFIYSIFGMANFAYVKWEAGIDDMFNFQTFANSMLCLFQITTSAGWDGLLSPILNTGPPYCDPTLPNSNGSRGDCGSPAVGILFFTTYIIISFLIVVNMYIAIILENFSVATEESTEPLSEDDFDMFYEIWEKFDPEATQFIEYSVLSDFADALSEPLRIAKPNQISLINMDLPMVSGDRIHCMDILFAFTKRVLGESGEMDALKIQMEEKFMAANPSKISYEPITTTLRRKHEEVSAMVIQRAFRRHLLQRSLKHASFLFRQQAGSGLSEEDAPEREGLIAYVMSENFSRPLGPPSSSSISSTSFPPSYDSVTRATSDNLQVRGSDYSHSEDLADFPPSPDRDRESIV
Sequence of Nav1.4 F1586A (P35499 whole entry F1586A, looked up): as the sequence (P35499 whole entry P1158S, looked up) above, with S1158P, F1586A counted along it

CC[C@H]1OC(=O)[C@H](C)[C@@H](O[C@H]2C[C@@](C)(OC)[C@@H](O)[C@H](C)O2)[C@H](C)[C@@H](O[C@@H]2O[C@H](C)C[C@H](N(C)C)[C@H]2O)[C@](C)(O)C[C@@H](C)CN(C)[C@H](C)[C@@H](O)[C@]1(C)O [Azithromycin]
late sodium current compared to control (Nav1.5 [1]): an increase in late sodium current

C=C(C)[C@@H]1CCC(C)=C[C@H]1c1c(O)cc(CCCCC)cc1O [CANNABIDIOL, 2-[(1R,6R)-3-Methyl-6-(1-methylethenyl)-2-cyclohexen-1-yl]-5-pentyl-1,3-benzenediol]
SSFI V1/2 (Nav1.4 [2]): −72.7±3.0 mV | SSFI z (Nav1.4 [2]): −2.8±0.4 | activation V1/2 (Nav1.4 [2]): −14.3±4.2 mV | activation z (Nav1.4 [2]): 2.8±0.3 | state-dependence in Nav inhibition (Nav): approximately 10 fold | pIC50 (Nav; read-out: IC50, inactivated Nav): ~6.00 | pIC50 (Nav; read-out: IC50, resting Nav): ~5.00 | gramicidin currents (gramicidin-HEK cells): slightly altered gramicidin currents | GV − z (slope) (Nav1.5 [3]): 4.7 ± 0.9 and 3.7 ± 0.6 and 2.8 ± 0.2 and 3.1 ± 0.2 | activation and steady-state inactivation curves (Nav1.5 (SCN5A)): rescues the activation and steady-state inactivation curves | late sodium current (Nav1.5 (SCN5A)): indistinguishable from control | drop in potency in pore-mutant [4]: ~2.5 fold | Mean block of INa (Nav1.4 [5]): 42.4±6.4% and ~45% | contraction amplitude (rat diaphragm muscle): ~60 % of control | effect on reduction in cell viability at high glucose [6]: attenuated the reduction in cell viability | Mean block of INa (Nav1.4 F1586A): 25.3±4.8% and ~25% | difference between inhibition of WT vs. F1586A (Nav1.4 F1586A): 1.5 fold | peak heat of titration [7]: 1022.2 ± 160.6 kcal/mol | gramicidin signal (fluorescence quench) [8]: alters the gramicidin signal | Azithromycin-induced late sodium current (Nav1.5 [1]): the late current was reduced | SSFI V1/2 (Nav1.4 P1158S; pH6.4): −81.7±2.3 mV | SSFI z (Nav1.4 P1158S; pH6.4): 2.7±0.3 | activation V1/2 (Nav1.4 P1158S; pH6.4): −21.1±3.3 mV | activation z (Nav1.4 P1158S; pH6.4): 2.5±0.2 | persistent currents, Percentage (Nav1.4 P1158S; pH6.4): 5.4±1.2% | SSFI V1/2 (Nav1.4 P1158S; pH7.4): −83.0±2.6 mV | SSFI z (Nav1.4 P1158S; pH7.4): 3.0±0.3 | activation V1/2 (Nav1.4 P1158S; pH7.4): −32.7±3.6 mV | activation z (Nav1.4 P1158S; pH7.4): 2.9±0.2 | persistent currents, Percentage (Nav1.4 P1158S; pH7.4): 1.0±0.2% | Percentage of persistent INa (Nav1.5 [9]): 0.93 ± 0.05% and 1.04 ± 0.11% and 0.88 ± 0.07% | ROS levels at high glucose [10]: complete reduction of ROS levels | Mean block of INa (Nav1.4 WWWW): 6.4±1.3%

Nc1ncnc2c1nc(Sc1ccc(Cl)cc1)n2[C@@H]1O[C@@H]2COP(=O)([O-])O[C@H]2[C@H]1O.[Na+] [CPT-cAMP, 8-(4-chlorophenylthio) adenosine-3′,5′-cyclic monophosphate]
SSFI V1/2 (Nav1.5 [11]): −79.4 ± 1.1 mV | SSFI − z (slope) (Nav1.5 [11]): −3.0 ± 0.1 | GV − V1/2 (Steady state activation) (Nav1.5 [12]): −25.2 ± 0.5 mV | GV − z (slope) (Nav1.5 [12]): 2.5 ± 0.1 | Percentage of persistent INa (Nav1.5 [9]): 2.20 ± 0.08%

C[C@]12CC[C@@H]3c4ccc(O)cc4CC[C@H]3[C@@H]1CC[C@@H]2O [E2, 17β-Estradiol]
GV − z (slope) (Nav1.5 [12]): 3.1 ± 0.1 and 3.0 ± 0.1 and 2.4 ± 0.1 and 3.5 ± 0.1 and 2.8 ± 0.1 and 3.6 ± 0.1 and 3.4 ± 0.2 | Percentage of persistent INa (Nav1.5 [9]): 0.85 ± 0.06% and 0.91 ± 0.06% and 1.92 ± 0.09% and 0.89 ± 0.06% and 1.73 ± 0.03% and 0.95 ± 0.09% and 0.90 ± 0.11%

CCN(CC)CC(=O)Nc1c(C)cccc1C [Lidocaine, lidocaine]
pIC50 (Nav1.4 [13]): 2.96 | Mean block of INa (Nav1.4 [5]): 60.6±2.3% and ~60% | Mean block of INa (Nav1.4 F1586A): 24.6±9.3% and ~20% | difference between inhibition of WT vs. F1586A (Nav1.4 F1586A): 3 fold | peak heat of titration [7]: 968.0 ± 23.4 kcal/mol | Mean block of INa (Nav1.4 WWWW): 53.6±11.7%

OC[C@@H](O)[C@@H](O)[C@H](O)[C@H](O)CO [Mannitol, mannitol]
GV − V1/2 (Steady state activation) (Nav1.5 [3]): −39.2 ± 1.6 mV | GV − z (slope) (Nav1.5 [3]): 5.1 ± 0.8 | cell viability, agent alone [6]: no significant effect on the cell viability | SSF[I] − V1/2 (Steady State Fast Inactivation) (Nav1.5 [14]): −93.6 ± 2.3 mV | SSF[I] − z (slope) (Nav1.5 [14]): −2.1 ± 0.3

CCCCCCCCCCCCCC(=O)O[C@@H]1[C@@H](C)[C@@]2(O)[C@@H](C=C(CO)C[C@]3(O)C(=O)C(C)=C[C@@H]23)[C@@H]2C(C)(C)[C@]12OC(C)=O [PMA]
SSFI V1/2 (Nav1.5 [11]): −76.4 ± 1.7 mV | SSFI − z (slope) (Nav1.5 [11]): −2.9 ± 0.2 | GV − V1/2 (Steady state activation) (Nav1.5 [12]): −22.6 ± 1.6 mV | GV − z (slope) (Nav1.5 [12]): 2.5 ± 0.1 | Percentage of persistent INa (Nav1.5 [9]): 2.18 ± 0.06%

NC1=N[C@H](O)[C@H]2[C@H]3O[C@]4(O)O[C@@H]([C@@H](O)[C@@]2(N1)[C@@H]4O)[C@]3(O)CO [TTX, tetrodotoxin]
contraction amplitude (rat diaphragm muscle): ~20 % of control | pIC50 (TTX-sensitive channels): 7.52 to 8.00

CC1(C)CC(O)CC(C)(C)N1[O] [Tempol]
GV − z (slope) (Nav1.5 [3]): 3.9 ± 0.6 and 4.4 ± 0.5 and 2.6 ± 0.2 and 4.0 ± 0.6 and 2.2 ± 0.1 and 4.3 ± 1.0 and 3.4 ± 0.3 | effect on reduction in cell viability at high glucose [6]: showed similar results to CANNABIDIOL | ROS levels at high glucose [10]: complete reduction of ROS levels

O=C(NCC1CCCCN1)c1cc(OCC(F)(F)F)ccc1OCC(F)(F)F (centres unmarked) [flecainide]
Mean block of INa (Nav1.4 [5]): 64.6±6.0% | Mean block of INa (Nav1.4 WWWW): 76.4±11.3%

Triton X100 [TX100]
gramicidin currents (gramicidin-HEK cells): altered the cationic gramicidin currents across all potentials
